Test results: a melting point compilation (Tetko et al.; mined from patent text by program, amines drawn as free bases though some values may be those of a salt)

Compound	melting point [°C]
CC(C)C[C@H](NC(=O)[C@H](Cc1c[nH]cn1)NC(=O)[C@H](Cc1cccc2ccccc12)NC(=O)OCc1ccccc1)[C@@H](O)CCO	196 to 198
CC(C)(C)C(=O)CC(=O)c1ccccc1	43 to 45
CCOC(=O)C(=NOCc1ccc(OCc2nc(-c3ccccc3)oc2C)cc1)c1ccc(OC)cc1	102 to 103
CCCSC(C)(C(=O)O)c1ccc2oc(Cc3nc(-c4ccccc4)oc3C)cc2c1 (stereo not drawn)	169 to 170
Cc1ccc(S(=O)(=O)NN=C(Cc2ccc(OCc3ccccc3)cc2)c2cc(OCc3ccccc3)cc(OCc3ccccc3)c2)cc1	147
CCCC1=C(CCC)C1(C(=O)Nc1ccc(Br)cc1C)C(=O)OC	52 to 54
CC(=C1SCCCS1)c1ccc(N2CCN(C)CC2)cc1	91 to 92
CCOC(=O)c1ccc(N2CCN(CC(=O)c3ccc(Cl)cc3)CC2)cc1	150 to 152
CCCNC(=S)N1CCc2[nH]cnc2C1	151
NC(=NO)c1ccno1	146 to 148
Cc1c(CCC(=O)O)n(Cc2ccc(-n3ccnc3)cc2)c2ccc(F)cc12	222
CC(C)c1nc2c(c3c1[nH]c1ccccc13)C(=O)C(C)(C)CC2	182 to 184
O=c1[nH]c2cc(Cl)c(Cl)cc2n1CCCN1CCN(C(c2ccccc2)c2ccccc2)CC1	214
CC(C)(C)c1ccccc1N1CCN(C(=O)Cc2nnn[nH]2)CC1	236 to 237
COc1cc(OC)c(/C=C/S(=O)(=O)CS(=O)(=O)/C=C/c2c(OC)cc(OC)cc2OC)c(OC)c1	140 to 142
COc1ccc(C(=O)Nc2ccccc2)cc1NCc1ccc(O)c([N+](=O)[O-])c1	175 to 176
COC(=O)c1[nH]c(C)c(C)c1OCCCCl	117 to 120
COc1ccc(Cn2cnc3c(-c4ccco4)nc(SC)nc32)cc1	147 to 148
CC(=O)Oc1c(C)ccc2ccccc12	81 to 83
CCOCn1c(C(OC(C)=O)c2ccccc2)c(C(C)C)c(=O)[nH]c1=O (stereo not drawn)	158
CCOC(C)c1cc(C(=O)OC)c(N)cc1C(F)(F)F (stereo not drawn)	100 to 103
COc1cccc(Nc2nccc(-c3sc(N)nc3-c3ccccc3)n2)c1	115 to 117

Compound	melting point [°C]
CCOC(=O)N1CCc2[nH]cc3c(=O)n(-c4ccc(Cl)cc4)nc-3c2C1	357 to 359
Cc1oc(-c2ccccc2)nc1CC=Cc1ccc(CCCC2OC(=O)NC2=O)cc1 (stereo not drawn)	136 to 137
O=C(Nc1ccc(C(=O)N2Cc3ccccc3Cc3ccccc32)cc1)c1cccc(C(F)(F)F)c1	190 to 191
O=C(O)c1ccc2cc([N+](=O)[O-])c3ccc(C(=O)O)nc3c2n1	218 to 220
COc1cc(C(C)=O)ccc1OCCCN1C2CCC1CC(c1n[nH]c3ccccc13)C2 (stereo not drawn)	173 to 175
NC1CCC(C(=O)Nc2cccc(-c3cccc4c3/C(=C/c3ccc[nH]3)C(=O)N4)c2)CC1 (stereo not drawn)	210 to 212
CC1(C)COC1(Cn1cncn1)c1ccc(Cl)cc1 (stereo not drawn)	90 to 102
N=C(N)c1nc2c(s1)CCc1c-2sc2nc3ccccc3n12	> 300
CCOC(=O)C1=C(COCc2ccc(CN3CCOCC3)o2)NC(C)=C(C(=O)OC)C1c1ccccc1Cl (stereo not drawn)	85 to 87
CC(=O)Cc1cc([C@]2(c3cccc(-c4cccnc4F)c3)N=C(N)N(C)C2=O)cn1CCCF	147 to 150
O=c1c2c(Cl)cccc2nc(CSc2ncnc3[nH]cnc23)n1-c1ccccc1F	244
O=C1C(=O)c2ccccc2C2=C1SCC1(CCN(CC(O)Cc3ccccc3)CC1)O2 (stereo not drawn)	82 to 84
CN1CCC[C@@H]1Cc1c(-c2ccccc2)[nH]c2ccccc12	132
CCCCCCCCCCCCCCCCCCOc1cccc2c(O)cccc12	90 to 92
Cc1cc2[nH]c(=O)c(C(=O)O)c(-c3ccccc3C)c2cc1C	236 to 237
COc1cccc(CC(CS)C(=O)Nc2c[nH]c(C(=O)O)c2)c1 (stereo not drawn)	153 to 158
COC(=O)c1ccc(C#C[Si](C)(C)C)cn1	45
CS(=O)(=O)c1ccc(C(CC2CCCC2)c2nc(F)c(C(=O)C3CC3)[nH]2)cc1 (stereo not drawn)	160 to 162
NC(=O)c1cc(COc2nnc(Nc3ccc(Cl)cc3)c3ccsc23)ccn1	233
COC(=O)c1cccc2nc(SCCCCCCCCC(=O)Nc3c(SC)cc(C)nc3SC)oc12	126 to 128
CNC(=O)C=C1CSc2c(C(=O)OC(C)C)c(C)cn21	173 to 175

More lines, now with the values ahead:

melting point [°C]	Compound
115 to 116	COC(=O)c1cn(Cc2ccc(OCc3nc(-c4ccccc4)oc3C)cc2)cc1-c1ccccc1
202 to 205	C[C@H]1CC[C@H]2C(C)(C)C(=NN3CCOCC3)CC[C@]23Oc2c(c(O)cc4c2CNC4=O)C[C@]13C
101 to 104	O=C(Nc1ccc(OC(F)(F)F)cc1)N1CC(c2sncc2C(F)(F)F)C(c2ccc(Cl)cc2)=N1 (stereo not drawn)
> 250	O=C1CCCCc2cc(Cl)c(Cl)cc21
215 to 217	COc1cccc2c1CC1CC(CCN3CCC(c4c[nH]c5ccccc45)CC3)CN(C)C1C2 (stereo not drawn)
301 to 302	Cc1c(C(=O)C2C(=O)CCCC2=O)ccc(S(C)(=O)=O)c1S(C)(=O)=O
84 to 87	Cc1nc2cnccc2n1-c1ccc(Cn2c(=O)oc3ccccc32)cc1
63 to 64	CCOC(=O)c1csnc1-c1ccc(C(F)(F)F)cc1
129 to 130	COC(=O)c1nc(OC)c2ccccc2n1
198	Nc1c(Cl)cc(-c2nn(C3CCN(Cc4ccc(C(F)(F)F)cc4)CC3)c(=O)o2)c2c1OCCO2
195 to 196	CC(=O)c1ccc(C(=C2CC(C)(C)CC(C)(C)C2)c2ccc(O)cc2)cc1
173	CCc1cc(C#N)ccc1N1C(=O)C(=O)N(C(C)(C)CC)C1=S
178 to 180	CCCC(NS(=O)(=O)c1ccc(C)cc1)P(=O)(Oc1ccccc1)Oc1ccccc1 (stereo not drawn)
120 to 121	CCc1ccc(S(=O)(=O)CC#N)cc1
158 to 161	CCCCc1nn(-c2cc(NC(=O)CC)ccc2C(F)(F)F)c(=O)n1Cc1ccc(-c2ccccc2S(=O)(=O)NC(=O)OC(C)(C)C)cc1
172 to 175	Cc1ccc(Cn2ncc(-c3ccc(S(C)(=O)=O)cc3)c(-c3ccc(F)cc3)c2=O)s1
160 to 162	CCCOc1cc(C(=O)O)cc([N+](=O)[O-])c1C(=O)c1ccccc1
208 to 209	COc1ccc(-c2nc(N)nc(NC(=O)c3cccnc3)n2)c2ccccc12
161 to 165	COC(=O)c1ccccc1Cn1ccc(OCc2ccc(F)cc2)c(Br)c1=O
115 to 116	C#CCNC(=NCCSCc1ncccc1Cl)NC#N
109 to 112	CC(=O)n1cnc2c(CBr)cccc21
117 to 122	CCCCc1nc2c(c(=O)[nH]1)CN(C(=O)OCc1ccccc1)CC2
103 to 104	CCC1(CSc2ccccc2C(=O)c2ccccc2)COC(=O)N1 (racemic)
113 to 114	C=C1N(Cc2ccccc2)C(=O)OC12CCN(Cc1ccccc1)CC2
296 to 298	O=C(O)c1cnc(Nc2cc3c4c(c2)CCCC4CCC3)nc1
175 to 179	CC(=O)NC[C@H]1CN(c2ccc(N3CCC(=CC4(C#N)CC4)CC3)c(F)c2)C(=O)O1
275 to 276	COc1ccc(N=Nc2ccc(O)c(C(=O)Nc3ccc4[nH]nnc4c3)c2)cc1
132 to 134	Cn1c(C2CC2)nc2c(O[C@@H]3c4ccccc4C[C@H]3O)cc(C(=O)O)cc21 (relative stereo)

melting point [°C]	Compound
75.9 to 77.6	Nc1ccc(OC(F)(F)F)cc1CO
142 to 144	COc1nc2ccccc2nc1N(C)C(=O)N1CCN(c2cc(C)cc(C)c2)CC1
79 to 80	CNC(NCCNCc1ccc(CN(C(C)C)C(C)C)o1)=C(C#N)C#N
122 to 123	CCC(O)(CCC(N)=O)c1ccc(Br)cc1 (stereo not drawn)
100 to 101	CCCCCCCCC(=O)Nc1cc(C)c(O)c(C)c1
153	O=C1CN(c2ccc(Cl)cc2)C(=S)N1c1ccc(Cc2ccccc2)cc1
109	O=C(O)CCCCCc1ccc(O)c(O)c1
127 to 130	O=C(NCC1Cc2c(Cl)cc3c(c2O1)CCC3)OCc1ccccc1 (stereo not drawn)
75 to 77	CN1CCN(CCCNc2ncc3c(n2)-c2ccccc2C(c2ccc(N)cc2)C3)CC1 (stereo not drawn)
153 to 154	Cc1nn(-c2ccccn2)c2nc3ccccc3cc12
135 to 136	Cc1oc(-c2ccco2)nc1COc1ccc(Cn2cc(CC(=O)O)c(-c3ccccc3)n2)cn1
146 to 148	CC(=O)c1c(O)cc(C)cc1O
165 to 172	BrCc1ccc(-c2nnn(C(c3ccccc3)(c3ccccc3)c3ccccc3)n2)cc1
218 to 221	O=C1Cc2cccc(S(=O)(=O)c3ccc(Cl)cc3)c2N1
164 to 167	COc1ccc(S(=O)(=O)N(CCCO)c2ccccc2/C=C/c2ccncc2)cc1
185 to 190	NC(=O)c1c[nH]cc1-c1cccc(Cl)c1Cl
157 to 158	COc1cc(OC)c(NC2=Nc3ccccc3CS2)cc1Cl
152 to 154	OC(C1=NCCN1)(c1ccccc1)c1ccccn1 (stereo not drawn)
169 to 172	COc1nc2ccc(Br)cc2cc1C#N
143 to 144	CCOC(=O)C(NC(=O)OC(C)(C)C)c1csc(N)n1 (stereo not drawn)
208	Cc1ccnc(C(=O)n2cc(CC(=O)N(C)C)c3ccc(Cl)cc32)c1
> 300	N#Cc1cc(-c2ccncc2)c[nH]c1=O
145 to 146	Cc1oc(-c2ccccc2)nc1COc1ccccc1COc1ccccc1CC(=O)O
140	C[C@]1(CN2CCN(C(=O)OCc3ccc(OC(F)(F)F)cc3)CC2)Cn2cc([N+](=O)[O-])nc2O1
> 210	Cc1cc(CO)c2c(N)c(C(N)=O)sc2n1
46 to 47	CCOC(=O)c1cccc(-c2ccc3c(n2)C(O)CC3)c1 (stereo not drawn)
103 to 117	CCCNC(=O)C(C)Cc1ccc2c(c1)c(Cc1ccc(C(=O)NS(=O)(=O)c3ccccc3C)cc1OC)cn2C (stereo not drawn)
